Assays:
[1] = test system: human embryonic stem cell derived neural stem cells (NSCs); assay: Neural stem cell proliferation assay (neurogenesis assay, ATP levels by CellTiterGlo); type: cell-based; conditions: 96 h, compound concentration at which 150% activity of control (100%) is reached, ATP levels after 4 days incubation, dose response 8 μM to 8 nM
Method: Neural Stem Cell Proliferation Assay
Neurogenic properties of small molecules are determined based on the proliferation of human embryonic stem cell derived neural stem cells (NSCs) which were derived via a dual smad inhibition as previously described (Chambers, S. M., et al., Highly efficient neural conversion of human ES and iPS cells by dual inhibition of SMAD signaling, Nature biotechnology, 2009. 27(3): p. 275-80.)
Compounds respond is measured by the increase in cells based on ATP levels (Promega:CellTiterGlo®) after an incubation period of 4 days.
NSCs are thawed and expanded over 3 passages. On the 14th day, NSCs are seeded in Polyornithin/Laminin coated 384 well plates at a cell density of 21′000 cells/cm^2 in a media volume of 38 μl.
4 hours after cell seeding, compound solutions are added at a volume of 2 μl. Stock solutions of the compounds (water, 5% DMSO) are diluted to obtain a dose response (11 points, dilution factor is 2), ranging from 8 μM to 8 nM. Controls are run to consistently determine the neurogenic properties of the cells: • Negative (neutral) control is cell culture Media (final DMSO concentration: 0.25%). Positive controls are: • 1. cell culture Media+100 ng/ml FGF2 (final DMSO concentration: 0.1%) • 2. cell culture Media+20 ng/ml EGF (final DMSO concentration: 0.1%) • 3. cell culture Media+100 ng/ml Wnt3a (final DMSO concentration: 0.1%)
After 4 days incubation at 37° C., 5% CO2, the amount of ATP per well is quantified. The ATP concentration is proportional to the cell number. ATP is quantified by using the Promega CellTiterGlo® kit. The CellTiterGlo® reagents contain a cell lysis buffer, a thermo stable luciferase (UltraGlo™ recombinant luciferase), magnesium and luciferin. Luciferin reacts with ATP producing oxyluciferin, AMP and light. The luminescence signal is proportional to the ATP content.
The value of negative (neutral) control is determined for each assay plate by taking the average of 16 negative control wells. The neurogenic compound response is calculated for each compound as (compound/Negative Control)* 100.
The values of EC150 from the dose response curve are determined for each test compound. The EC150 is the compound concentration at which 150% activity of control (100%) is reached.

Compound: Fc1ccc(-n2nccc2-c2ccc3noc(-c4ccc(C(F)(F)F)cc4)c3c2)c(F)c1 [Example 31, 5-[2-(2,4-Difluoro-phenyl)-2H-pyrazol-3-yl]-3-(4-trifluoromethyl-phenyl)-benzo[c]isoxazole]
- EC (150% of control) [1]: 0.96 µM
- melting point: 159 °C

Compound: Fc1ccc(-n2nccc2-c2ccc3noc(-c4ccc(Cl)cc4)c3c2)c(F)c1 [Example 32, 3-(4-Chloro-phenyl)-5-[2-(2,4-difluoro-phenyl)-2H-pyrazol-3-yl]-benzo[c]isoxazole]
- EC (150% of control) [1]: 0.073 µM
- melting point: 155 °C

Compound: COc1ccc(-c2onc3ccc(-c4ccnn4-c4ccc(F)cc4F)cc23)cc1 [Example 33, 5-[2-(2,4-Difluoro-phenyl)-2H-pyrazol-3-yl]-3-(4-methoxy-phenyl)-benzo[c]isoxazole]
- EC (150% of control) [1]: 0.068 µM
- melting point: 165 °C

Compound: c1ccc(-c2onc3ccc(-c4ccnn4-c4ccccc4)cc23)cc1 [Example 34, 3-Phenyl-5-(2-phenyl-2H-pyrazol-3-yl)-benzo[c]isoxazole]
- EC (150% of control) [1]: 0.13 µM
- melting point: 163 °C

Compound: Fc1ccc(-c2onc3ccc(-c4ccnn4-c4ccccn4)cc23)cc1 [Example 35, 3-(4-Fluoro-phenyl)-5-(2-pyridin-2-yl-2H-pyrazol-3-yl)-benzo[c]isoxazole]
- EC (150% of control) [1]: 0.04 µM
- melting point: 175 °C

Compound: COc1ccc(-c2onc3ccc(-c4ccnn4-c4ccccc4F)cc23)cc1F [Example 36, 3-(3-Fluoro-4-methoxy-phenyl)-5-[2-(2-fluoro-phenyl)-2H-pyrazol-3-yl]-benzo[c]isoxazole]
- EC (150% of control) [1]: 0.16 µM
- melting point: 168 °C

Compound: COc1ccc(-c2onc3ccc(-c4ccnn4-c4ccc(F)cc4)cc23)cc1F [Example 37, 3-(3-Fluoro-4-methoxy-phenyl)-5-[2-(4-fluoro-phenyl)-2H-pyrazol-3-yl]-benzo[c]isoxazole]
- EC (150% of control) [1]: 1.1 µM
- melting point: 162 °C

Compound: Cc1ccc(-n2nccc2-c2ccc3noc(-c4ccc(F)c(F)c4)c3c2)cc1 [Example 38, 3-(3,4-Difluoro-phenyl)-5-(2-p-tolyl-2H-pyrazol-3-yl)-benzo[c]isoxazole]
- EC (150% of control) [1]: 0.48 µM
- melting point: 198 °C

Compound: COc1ccc(-c2onc3ccc(-c4ccnn4-c4ccc(C)cc4)cc23)cc1F [Example 39, 3-(3-Fluoro-4-methoxy-phenyl)-5-(2-p-tolyl-2H-pyrazol-3-yl)-benzo[c]isoxazole]
- EC (150% of control) [1]: 0.25 µM
- melting point: 197 °C

Compound: COc1ccc(-c2onc3ccc(-c4ccnn4-c4ccc(F)cc4F)cc23)cc1F [Example 40, 5-[2-(2,4-Difluoro-phenyl)-2H-pyrazol-3-yl]-3-(3-fluoro-4-methoxy-phenyl)-benzo[c]isoxazole]
- EC (150% of control) [1]: 0.23 µM
- melting point: 183 °C

Compound: Fc1ccc(-c2onc3ccc(-c4ccnn4-c4ccccc4Cl)cc23)cc1 [Example 41, 5-[2-(2-Chloro-phenyl)-2H-pyrazol-3-yl]-3-(4-fluoro-phenyl)-benzo[c]isoxazole]
- EC (150% of control) [1]: 0.22 µM
- melting point: 161 °C

Compound: Clc1ccc(-c2onc3ccc(-c4ccnn4-c4ccccc4Cl)cc23)cc1 [Example 42, 3-(4-Chloro-phenyl)-5-[2-(2-chloro-phenyl)-2H-pyrazol-3-yl]-benzo[c]isoxazole]
- EC (150% of control) [1]: 0.3 µM
- melting point: 172 °C

Compound: Cc1ccc(-c2onc3ccc(-c4ccnn4-c4ccccc4Cl)cc23)cc1 [Example 43, 5-[2-(2-Chloro-phenyl)-2H-pyrazol-3-yl]-3-p-tolyl-benzo[c]isoxazole]
- EC (150% of control) [1]: 0.15 µM
- melting point: 176 °C

Compound: Fc1ccc(-n2nccc2-c2ccc3noc(-c4cccs4)c3c2)cc1 [Example 44, 5-[2-(4-Fluoro-phenyl)-2H-pyrazol-3-yl]-3-thiophen-2-yl-benzo[c]isoxazole]
- EC (150% of control) [1]: 0.17 µM
- melting point: 154 °C

Reference: patent US9440962B2, “Benzisoxazoles” (Hoffmann-La Roche Inc., priority 2012, dated 2016)
